What was measured:
[1] = test system: FMAL-actin plus TMR-cC0-C2; assay: Selleck library HTS, 473 nm excitation (FLT of FMAL-actin with TMR-cC0-C2, FLT-FRET); assay type: binding, human; conditions: for 473-nm Δτ, Repeat 1 / 473-nm Δτ, Repeat 2: initial screen, 30 μM compound; for 473-nm z-score (based on avg Δτ): robust z-score, hit threshold ±4, 30 μM compound
Experimental: (§1) Fluorescence lifetime (FLT) measurements were acquired using a high-throughput FLT plate reader (Fluorescence Innovations, Inc) ([14], [27]), provided by Photonic Pharma LLC. […] The observed waveforms were analyzed as described previously ([15], [28]).
(§2) In total, 50 nl of each solution was dispensed in DMSO using an automated Echo 550 acoustic liquid dispenser (Labcyte). Compounds were formatted into the assay plates, at a final concentration of 30 μM, with the first two and second to last columns loaded with DMSO only (compound-free controls). In the final column, 30 μM of suramin was loaded as a positive control (tool compound). These assay plates were then heat-sealed using a PlateLoc Thermal Microplate Sealer (Agilent Technologies) and stored at −20 °C. Before screening, compound plates were equilibrated to room temperature (∼25 °C). […] Plates were incubated at room temperature for 60 min before recording the data with the fluorescence lifetime plate reader.
After fitting the waveforms with a single exponential decay to quantify donor FLT, the change in FLT (Δτ) was computed by performing a moving median subtraction in the order the plate was scanned with a window size of half a plate row […]. The reasons for this are twofold. Firstly, plate gradients are often observed due to the heating of the digitizer during acquisition.
To account for the necessity to correct for plate gradients in the computation of E, the median τDMSO prior to the application of the moving median correction was added to each well’s Δτ value to recover a rescaled value of τ.

TMR-cC0-C2 = assay: Selleck library HTS, 532 nm excitation (FLT of TMR-cC0-C2 in presence of FMAL-actin); assay type: binding, human; conditions: for 532-nm Δτ, Repeat 1 / 532-nm Δτ, Repeat 2: initial screen, 30 μM compound; for 532-nm z-score (based on avg Δτ): robust z-score, hit threshold ±4, 30 μM compound
Experimental: as §1, §2
Hits that exceeded the z-score hit criteria in the donor-only screen were excluded from consideration. To remove compounds with confounding fluorescence properties, a similarity index (SI, specifically the cosine distance, Equation 5) was computed using data from the SUPR instrument by comparing a region (500–540 nm) of the donor-only spectrum (I^(a)) for each well to that of the plate-wide average DMSO spectrum (I^(b)) in the same wavelength band ([29]). Compounds that exceeded an SI robust z-score of 4 were deemed likely fluorescent compounds and removed from consideration.(5) SI=1−∑Ii(a).Ii(b)/∑Ii(a).Ii(a)∑Ii(b).Ii(b)

[2] = test system: TMR-cC0-C2 (C0-C2 fragment of human cMyBP-C); assay: FLT-TMR concentration-response assay (FLT of TMR on cC0-C2, no actin); assay type: binding; conditions: 60 μM compound
Experimental: Compounds identified as initial hits were further examined to determine the concentration–response curves for seven conditions ([1]): FMAL-actin alone identified actin-binding compounds that alter the FLT of FMAL-actin ([2]).
as §1
The primary hits were dissolved in DMSO to make a 10 mM stock solution, which was serially diluted in 96-well mother plates. Hits were screened at eight concentrations (0.5–100 μM). […] Compounds (1 μl) were transferred from the mother plates into 384-well plates using a Mosquito HV liquid handler (TTP Labtech Ltd, Hertfordshire, UK). The same procedure of dispensing as for the pilot screening was applied in the concentration-response assays. Concentration dependence of the FLT-FRET (E/EDMSO) or FLT-TMR (Δτ) change data was fit to a Hill equation only under certain conditions to help guide the eye (Fig. 4).

Compound | 473-nm Δτ, Repeat 1 [1] | 473-nm Δτ, Repeat 2 [1] | 473-nm z-score (based on avg Δτ) [1] | 532-nm Δτ, Repeat 1 (TMR-cC0-C2) | 532-nm Δτ, Repeat 2 (TMR-cC0-C2) | 532-nm z-score (based on avg Δτ) (TMR-cC0-C2) | cC0-C2 FLT change (% change from DMSO, FLT of TMR-MyBP-C) [2]
C[n+]1cc2c3c(ccc2c2ccc4cc5c(cc4c21)OCO5)OCO3 [Sanguinarine chloride] | -0.105 ns | -0.086 ns | -5.31 | -0.160 ns | -0.020 ns | -5.46 | 
COc1cc2nc(N3CCN(C(=O)C4COc5ccccc5O4)CC3)nc(N)c2cc1OC (stereo not shown) [Doxazosin] | -0.266 ns | -0.231 ns | -13.87 | 0.125 ns | 0.126 ns | 7.70 | 
C[C@H](CCC(=O)O)[C@H]1CC[C@H]2[C@@H]3C[C@H](O)[C@@H]4C[C@H](O)CC[C@]4(C)[C@H]3CC[C@]12C [Hyodeoxycholic acid (HDCA), Hyodeoxycholic acid] | 0.111 ns | 0.072 ns | 5.17 | -0.021 ns | -0.120 ns | -4.27 | 
CCCCCCCCCCCCCCCC(=O)O[C@@H]1[C@@H](O)[C@@H](O)[C@@H]([C@H](NC(=O)[C@@H]2C[C@@H](CCC)CN2C)[C@H](C)Cl)O[C@@H]1SC.Cl [Clindamycin palmitate HCl] | -0.304 ns | -0.358 ns | -18.47 | -0.075 ns | -0.094 ns | -5.12 | −12.7%
CN(C)[C@@H]1C(O)=C(C(N)=O)C(=O)[C@@]2(O)C(O)=C3C(=O)c4c(O)cccc4[C@@](C)(O)[C@H]3[C@H](O)[C@@H]12 [Oxytetracycline (Terramycin), Oxytetracycline] | 0.175 ns | 0.122 ns | 8.34 | -0.019 ns | -0.057 ns | -2.29 | 
CO[C@@]1(NC(=O)C(C(=O)O)c2ccc(O)cc2)C(=O)N2C(C(=O)O)=C(CSc3nnnn3C)CO[C@@H]21 (stereo partly shown) [Latamoxef sodium] | 0.128 ns | 0.049 ns | 4.99 | -0.050 ns | -0.037 ns | -2.62 | 
Heparin sodium | 0.440 ns | 0.363 ns | 22.49 | -0.052 ns | -0.051 ns | -3.09 | 
Cc1ccc(NC(=O)c2ccc(CN3CCN(C)CC3)cc2)cc1Nc1nc(-c2cccnc2)cs1 [Masitinib (AB1010), Masitinib] | -0.336 ns | -0.197 ns | -14.87 | -0.071 ns | -0.082 ns | -4.66 | 
CC1=NN(c2ccc(C)c(C)c2)C(=O)/C1=N\Nc1cccc(-c2cccc(C(=O)O)c2)c1O [Eltrombopag olamine] | 0.270 ns | 0.162 ns | 12.13 | -0.267 ns | -0.418 ns | -20.87 | 
CC1(C)[C@@H](O[C@H]2O[C@H](C(=O)O)[C@@H](O)[C@H](O)[C@H]2O[C@@H]2O[C@H](C(=O)O)[C@@H](O)[C@H](O)[C@H]2O)CC[C@]2(C)[C@H]3C(=O)C=C4[C@@H]5C[C@@](C)(C(=O)O)CC[C@]5(C)CC[C@@]4(C)[C@]3(C)CC[C@@H]12.N.N [Diammonium glycyrrhizinate] | 0.077 ns | 0.080 ns | 4.42 | 0.022 ns | 0.017 ns | 1.22 | 
CONC(=O)Nc1ccc(-c2sc3c(c2CN(C)C)c(=O)n(-c2ccc(OC)nn2)c(=O)n3Cc2c(F)cccc2F)cc1 [Relugolix] | 0.366 ns | -0.004 ns | 10.15 | -0.169 ns | -0.015 ns | -5.58 | 
CCOC(=O)[C@@H](N)Cc1ccc(-c2cc(O[C@H](c3ccc(Cl)cc3-n3ccc(C)n3)C(F)(F)F)nc(N)n2)cc1 [Telotristat etiprate (LX 1606 Hippurate), Telotristat etiprate] | -0.136 ns | -0.122 ns | -7.19 | 0.064 ns | 0.093 ns | 4.83 | 
O=C(c1ccc(OCCN2CCCCC2)cc1)c1c(-c2ccc(O)cc2)sc2cc(O)ccc12 [Raloxifene] | -0.490 ns | -0.307 ns | -22.27 | -0.025 ns | -0.147 ns | -5.22 | 
C=CC1=C(C)c2cc3[nH]c(cc4nc(cc5[nH]c(cc1n2)c(C)c5CCC(=O)O)C(CCC(=O)O)=C4C)c(C)c3C=C [Protoporphyrin IX] | 0.144 ns | 0.076 ns | 6.21 | 0.067 ns | 0.016 ns | 2.58 | 
CNC(=O)c1cc(Oc2ccc(NC(=O)Nc3ccc(Cl)c(C(F)(F)F)c3)c(F)c2)ccn1 [Regorafenib (BAY 73-4506), Regorafenib] | -0.029 ns | -0.026 ns | -1.50 | 0.099 ns | 0.102 ns | 6.17 | 
Nc1ccc2cc3ccc(N)cc3nc2c1 [Proflavine hemisulfate] | 0.430 ns | 0.337 ns | 21.48 | -0.016 ns | -0.080 ns | -2.91 | 
CN1CCCN=C1/C=C/c1cccs1 [Pyrantel pamoate] | 0.313 ns | 0.250 ns | 15.79 | -0.043 ns | -0.100 ns | -4.32 | 
CCC(=O)c1c(O)cc(O)cc1O [Flopropione] | -0.335 ns | -0.210 ns | -15.21 | -0.062 ns | -0.073 ns | -4.10 | 
O=C(O)c1cc(/N=N/c2ccc(O)c(C(=O)O)c2)ccc1O [Olsalazine Sodium] | 0.202 ns | 0.096 ns | 8.38 | -0.057 ns | -0.123 ns | -5.46 | 
COc1ccc(CN(CCN(C)C)c2ncccn2)cc1 [Thonzylamine] | 0.012 ns | -0.449 ns | -12.17 | -0.034 ns | -0.382 ns | -12.66 | 
CC1(C)S[C@@H]2[C@H](NC(=O)[C@H](N)c3ccccc3)C(=O)N2[C@H]1C(=O)O [Ampicillin sodium] | 0.184 ns | 0.161 ns | 9.70 | 0.003 ns | 0.007 ns | 0.34 | 
O=c1cc(-c2ccc(O)c(O)c2)oc2cc(O)cc(O)c12 [Luteolin] | -0.309 ns | -0.214 ns | -14.58 | -0.277 ns | -0.302 ns | -17.63 | 

Reference: PMC10692721, “Drug discovery for heart failure targeting myosin-binding protein C” (The Journal of Biological Chemistry, 2023)
